Earlier results in patent US12409121B2, “Formulations and methods for preparing stable cosmetic compositions” (Spinart, LLC, priority 2019, dated 2025).

α-CO2H pKa1 (carboxylic group): 2.18
α-NH3 pKa2 (α-amino group): 9.09
Structure (SMILES): N=C(N)NCCCC(N)C(=O)O (centres unmarked) [Arginine]
